Measured values: patent US7517523B2, “Anti-MIF antibodies” (Cytokine PharmaSciences, Inc., priority 1993, dated 2009)

How the values were obtained:
Peritoneal Macrophages = experiment: Steroid-induced MIF secretion by peritoneal macrophages; type: cell-based, mouse; details: 12 to 15 h
Procedure: Cells were incubated for 12 to 15 h with various steroids (at concentrations ranging from 10^−6M to 10^−14M).
Samples were resolved on 18% SDS polyacrylamide gels under reducing conditions and transferred onto nitrocellulose membrane (Schleicher and Schuell, Keene, N.H.) at 50 V and 150 mA for 16 h. Membranes were blocked with 500 mM NaCl, 50 mM Tris-Base, pH 7.5 buffer containing 5% nonfat dry milk and 0.05% Tween-20 and incubated first with polyclonal anti-rMIF serum and then with horseradish peroxidase-conjugated goat anti-rabbit IgG antibody (each diluted 1:1000 in 500 mM NaCl, 50 mM Tris-Base, pH 7.5 buffer with 1% BSA). […] Incubations were 1 h each. MIF was visualized by development with chloronaphtol/H2O2 or with TMB substrate.

[1] = system: Sprague-Dawley female rats; experiment: Serum MIF after i.v. steroid injection; type: in vivo, rat; details: 10 mg/kg i.v., serum Western blotting
Procedure: Canulated Sprague-Dawley female rats were purchased from Zivic-Miller. Animals were housed with free access to food and water and were acclimatized for at least 2 days prior to experimentation. Rats were injected i.v. through the jugular vein with either dexamethasone (1, 10 or 20 mg/kg), or with RU38486 (mifepristone) (1 or 10 mg/kg), or with the two drugs together (both at 10 mg/kg, RU38486 was injected 15 min. before dexamethasone). Serum was collected 3, 6, and 9 hours post-steroids injection and analyzed by Western blotting with anti-MIF antibody.

RAW macrophages = experiment: Inhibition of the macrophage MIF response to dexamethasone; type: cell-based, mouse; details: pretreatment and co-administration, 10^−6M
Procedure: RAW 264.7 murine macrophages were obtained from the American Type Culture Collection (Rockville, Md.). Cells were grown in RPMI 1640 medium (Gibco, Grand Island, N.Y.), 10% heat-inactivated fetal bovine serum (FBS) (HyClone, Logan, Utah), 50 μg/ml of carbenicillin and gentamicin. […] After 3 h of incubation at 37° C. in a humidified atmosphere with 5% CO2, nonadherent cells were removed and wells were washed twice with RPMI/1% FBS. In some experiments designed to test for inhibition of MIF release, test compounds were then added to the culture media. For example, the cells were pre-treated with 20α-dihydrocorticol at a final concentration of 10^−6M. Cells then were incubated for 12-15 h with various steroids at concentrations ranging from 10^−6M to […] (e.q., dexamethasone), along with the desired test compound (e.g., 20α-dihydrocortisol) if any. At the end of experiment, cell culture media were collected and centrifuged (10 min at 800 g). Cell-conditioned media were concentrated 10-fold by membrane filtration (10 kDa cut-off) (Centricon-10, Amicon, Beverly, N.Y.).
Samples were resolved on 18% SDS polyacrylamide gels under reducing conditions and transferred onto nitrocellulose membrane (Schleicher and Schuell, Keene, N.H.) at 50 V and 150 mA for 16 h. […]

AtT-20 pituitary cells = experiment: MIF release from pituitary (AtT-20) cells (Western blotting); type: cell-based, mouse; details: 1-100 ng/ml
Procedure: AtT-20 cells were cultured for 24 hours in serum-free medium (enriched serum-free Joklik's medium from Gibco) containing various concentrations of LPS (E. coli LPS 0111:B4 from Sigma) at 0.5 μg/ml-50 μg/ml. […] This protein was transferred to polyvinylidene difluoride membrane and its primary N-terminal amino acid sequence was determined by automated gas-phase sequencing (Applied Biosystems).
MIF release from pituitary (AtT-20) cells was analyzed by Western blotting with anti-MIF antibody (FIG. 8). 1.5×10^5 pituitary cells were cultured serum-free for 18 h with different concentrations of LPS. After transfer, nitrocellulose membranes were incubated with rabbit anti-rMIF serum (1:1000 dilution) and bound antibody visualized with horseradish peroxidase-conjugated goat anti-rabbit antibody. 100 ng of rMIF was electrophoresed on the same gel for reference. Control supernatants (C) contained 1 μg/ml LPS that was added after removal of cells.

[2] = system: thioglycollate-elicited peritoneal macrophages; experiment: MIF secretion by thioglycollate-elicited peritoneal macrophages stimulated with LPS or IFNγ plus LPS; type: cell-based, mouse; details: IFNγ 100 IU/ml given 1 h prior to LPS
Procedure: After 3 h of incubation at 37° C. in a humidified atmosphere with 5% CO2, nonadherent cells were removed and wells were washed twice with RPMI/1% FBS. Cells then were incubated for 12 h with LPS (at concentrations ranging from 1 pg/ml to 1 μg/ml) or with cytokines (1 or 10 ng/ml for TNFα, IL-1β, and IL-6, and 10, 100 or 1000 IU/ml for IFNγ) diluted in RPMI/1% FBS. For time-course experiments, conditioned media of parallel cultures were removed at 3, 6, 9, 12 and 15 h intervals after LPS stimulation. […] Cells were incubated for 12 h either with LPS or with IFNγ plus LPS. When co-stimulated with IFNγ and LPS, cells were first incubated for an hour with IFNγ (100 IU/ml) before addition of LPS at the indicated concentrations. At the end of each experiment, cell-culture media were collected, centrifuged (10 min at 800 g), and supplemented with PMSF (1 mM). Supernatants then were concentrated 10-fold by membrane filtration (10 kD cut-off) (Centricon-10, Amicon, Beverly, N.Y.). […]
For Western blotting, samples were resolved on 18% SDS polyacrylamide gels under reducing conditions and transferred onto nitrocellulose membrane (Schleicher and Schuell, Keene, N.H.) at 50 V and 150 mA for 16 h. […] Serum MIF bands were quantified by laser densitometry (Shimadzu FDU-3, CS-9000U, Braintree, Mass.). Faint densitometric signals in the MIF region were detected in most sera prior to LPS administration (0 h). […]

Molecule: C[C@@H]1C[C@H]2[C@@H]3CCC4=CC(=O)C=C[C@]4(C)[C@@]3(F)[C@@H](O)C[C@]2(C)[C@@]1(O)C(=O)CO [Dexamethasone]
- Range of Steroid Concentrations Inducing MIF in Peritoneal Macrophages (Peritoneal Macrophages): 10^−8 to 10^−12 M

Molecule: C[C@]12CCC(=O)C=C1CC[C@@H]1[C@@H]2[C@@H](O)C[C@]2(C=O)[C@@H](C(=O)CO)CC[C@@H]12 [Aldosterone]
- Range of Steroid Concentrations Inducing MIF in Peritoneal Macrophages (Peritoneal Macrophages): 10^−8 to 10^−14 M

Molecule: C[C@]12CC[C@H]3[C@@H](CCC4=CC(=O)CC[C@@]43C)[C@@H]1CC[C@@H]2O [Testosterone]
- Range of Steroid Concentrations Inducing MIF in Peritoneal Macrophages (Peritoneal Macrophages): 10^−8 to 10^−14 M

Molecule: CC#C[C@]1(O)CC[C@H]2[C@@H]3CCC4=CC(=O)CCC4=C3[C@@H](c3ccc(N(C)C)cc3)C[C@@]21C [RU-38486 (mifepristone), mifepristone]
- MIF secretion in vivo [1]: induced MIF secretion

Molecule: C[C@]12CCC(=O)C=C1CC[C@@H]1[C@@H]2[C@@H](O)C[C@@]2(C)[C@H]1CC[C@]2(O)C(=O)CO [Hydrocortisone]
- Range of Steroid Concentrations Inducing MIF in Peritoneal Macrophages (Peritoneal Macrophages): 10^−8 to 10^−16 M

Molecule: C[C@]12CCC(=O)C=C1CC[C@@H]1[C@@H]2[C@@H](O)C[C@@]2(C)[C@H]1CC[C@]2(O)[C@@H](O)CO [4-pregnene-11β,17α,20α,21-tetrol-3-one]
- Effect on the MIF response to dexamethasone (RAW macrophages): attenuates or abolishes
- Range of Steroid Concentrations Inducing MIF in Peritoneal Macrophages (Peritoneal Macrophages): 10^−10 to 10^−14 M

B1: TNFα: recombinant murine TNFα (protein)
chain: LRSSSQNSSDKPVAHVVANHQVEEQLEWLSQRANALLANGMDLKDNQLVVPADGLYLVYSQVLFKGQGCPDYVLLTHTVSRFAISYQEKVNLLSAVKSPCPKDTPEGAELKPWYEPIYLGGVFQLEKGDQLSAEVNLPKYLDFAESGQVYFGVIAL
- MIF release from pituitary cells (AtT-20 pituitary cells): not released

B2: IFNγ: recombinant murine IFNγ (protein, UniProt P01580 23-155, looked up)
Interferon gamma: HGTVIESLESLNNYFNSSGIDVEEKSLFLDIWRNWQKDGDMKILQSQIISFYLRLFEVLKDNQAISNNISVIESHLITTFFSNSKAKKDAFMSIAKFEVNNPQVQRQAFNELIRVVHQLLPESSLRKRKRSRC
- MIF release from pituitary cells (AtT-20 pituitary cells): not released
- Increase in LPS responsiveness on co-stimulation [2]: > 1000 fold

B3: IL-1β: recombinant murine IL-1β (protein, UniProt P10749 118-269, looked up)
Interleukin-1 beta: VPIRQLHYRLRDEQQKSLVLSDPYELKALHLNGQNINQQVIFSMSFVQGEPSNDKIPVALGLKGKNLYLSCVMKDGTPTLQLESVDPKQYPKKKMEKRFVFNKIEVKSKVEFESAEFPNWYISTSQAEHKPVFLGNNSGQDIIDFTMESVSS
- MIF release from pituitary cells (AtT-20 pituitary cells): not released

B4: IL-6: recombinant murine IL-6 (protein, UniProt P08505 25-211, looked up)
Interleukin-6: FPTSQVRRGDFTEDTTPNRPVYTTSQVGGLITHVLWEIVEMRKELCNGNSDCMNNDDALAENNLKLPEIQRNDGCYQTGYNQEICLLKISSGLLEYHSYLEYMKNNLKDNKKDKARVLQRDTETLIHIFNQEVKDLHKIVLPTPISNALLTDKLESQKEWLRTKTIQFILKSLEEFLKVTLRSTRQT
- MIF release from pituitary cells (AtT-20 pituitary cells): not released
